Data: patent US8247211B2, “Glycopeptide antibiotics” (American Cyanamid Company, priority 2001, dated 2012)
≈ marks a conversion by molar mass, not a printed value.

Key:
Assay in all cases: In vitro antibacterial evaluation: minimum inhibitory concentration (MIC), broth dilution method
Type in all cases: cell-based
Enterococcus sp. = settings: 18 hours at 35° C.
How it was run: (§1)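 NCCLS M7-A2 broth dilution; Muller-Hinton II […]; 5×10^5 CFU/mL; 64-0.06 μg/mL. MIC = lowest concentration with no growth.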

Escherichia coli = settings: 18 hours at 35° C.
How it was run: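 Following NCCLS approved standard M7-A2, compounds are serially diluted from 64 to 0.06 μg/mL in Muller-Hinton II […] and inoculated at 5×10^5 CFU/mL; the MIC is the minimum concentration at which growth is inhibited.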

Staphylococcus sp. = system: Staphylococcus sp.
How it was run: as §1

Streptococcus sp. = settings: 18 hours at 35° C.
How it was run: as §1

[1] = broth dilution, inoculum 5×10^5 CFU/mL

## CCCCN1CC(C(O)C2NC(=O)C(C(O)C3CNC(=N)N3)NC(=O)C(Cc3ccc(OC4OC(CO)C(OC5OC6COC7(OC6C(O)C5O)C5CC6CC(C5)CC7C6)C(O)C4O)cc3)NC(=O)C(C(C)c3ccccc3)NC(=O)CNC(=O)C(CO)NC2=O)N(C2OC(CO)C(O)C(O)C2O)C1=N (stereo not drawn) [Example 224, Cyclo[glycyl-β-methylphenylalanyl-O-[4-O-[4,6-O-(2-adamantylidene)hexopyranosyl]hexopyranosyl]tyrosyl-3-(2-iminoimidazolidin-4-yl)seryl-3-(1-butyl-3-hexopyranosyl-2-iminoimidazolidin-4-yl)serylseryl]]
Enterococcus sp.; Enterococcus avium (GC 4558)
  MIC Enterococcus avium (GC 4558): 2 µg/mL (≈ 1.35 µM)
Enterococcus sp.; Enterococcus faecalis (ATCC 29212)
  MIC Enterococcus faecalis (ATCC 29212): 4 µg/mL (≈ 2.7 µM)
Enterococcus sp.; Enterococcus faecalis (GC 2242)
  MIC Enterococcus faecalis (GC 2242): 4 µg/mL (≈ 2.7 µM)
Enterococcus sp.; Enterococcus faecalis (GC 2691)
  MIC Enterococcus faecalis (GC 2691): 4 µg/mL (≈ 2.7 µM)
Enterococcus sp.; Enterococcus faecalis (GC 3059)
  MIC Enterococcus faecalis (GC 3059): 4 µg/mL (≈ 2.7 µM)
Enterococcus sp.; Enterococcus faecalis (GC 4552)
  MIC Enterococcus faecalis (GC 4552): 4 µg/mL (≈ 2.7 µM)
Enterococcus sp.; Enterococcus faecalis (GC 4553)
  MIC Enterococcus faecalis (GC 4553): 2 µg/mL (≈ 1.35 µM)
Enterococcus sp.; Enterococcus faecalis (GC 4554)
  MIC Enterococcus faecalis (GC 4554): 4 µg/mL (≈ 2.7 µM)
Enterococcus sp.; Enterococcus faecalis (GC 6189)
  MIC Enterococcus faecalis (GC 6189): 4 µg/mL (≈ 2.7 µM)
Enterococcus sp.; Enterococcus faecium (GC 2243)
  MIC Enterococcus faecium (GC 2243): 2 µg/mL (≈ 1.35 µM)
Enterococcus sp.; Enterococcus faecium (GC 4556)
  MIC Enterococcus faecium (GC 4556): 4 µg/mL (≈ 2.7 µM)
Enterococcus sp.; Enterococcus faecium (GC 4557)
  MIC Enterococcus faecium (GC 4557): 0.5 µg/mL (≈ 0.337 µM)
Enterococcus sp.; [1]
  MIC Enterococcus avium (GC 4558): 2 µg/mL (≈ 1.35 µM)
  MIC Enterococcus faecalis (ATCC 29212): 4 µg/mL (≈ 2.7 µM)
  MIC Enterococcus faecalis (GC 2242): 4 µg/mL (≈ 2.7 µM)
  MIC Enterococcus faecalis (GC 2691): 4 µg/mL (≈ 2.7 µM)
  MIC Enterococcus faecalis (GC 3059): 4 µg/mL (≈ 2.7 µM)
  MIC Enterococcus faecalis (GC 4552): 4 µg/mL (≈ 2.7 µM)
  MIC Enterococcus faecalis (GC 4553): 2 µg/mL (≈ 1.35 µM)
  MIC Enterococcus faecalis (GC 4554): 4 µg/mL (≈ 2.7 µM)
  MIC Enterococcus faecalis (GC 6189): 4 µg/mL (≈ 2.7 µM)
  MIC Enterococcus faecium (GC 2243): 2 µg/mL (≈ 1.35 µM)
  MIC Enterococcus faecium (GC 4556): 4 µg/mL (≈ 2.7 µM)
  MIC Enterococcus faecium (GC 4557): 0.5 µg/mL (≈ 0.337 µM)
Escherichia coli; Escherichia coli (GC 4559)
  MIC Escherichia coli (GC 4559): 64 µg/mL (≈ 43.1 µM)
Escherichia coli; Escherichia coli (GC 4560)
  MIC Escherichia coli (GC 4560): 2 µg/mL (≈ 1.35 µM)
Staphylococcus sp.; strain ATCC 29213
  MIC Staphylococcus aureus (ATCC 29213): 2 µg/mL (≈ 1.35 µM)
Staphylococcus sp.; strain GC 1131
  MIC Staphylococcus aureus (GC 1131): 4 µg/mL (≈ 2.7 µM)
Staphylococcus sp.; strain GC 3051
  MIC Staphylococcus aureus (GC 3051): 2 µg/mL (≈ 1.35 µM)
Staphylococcus sp.; strain GC 3053
  MIC Staphylococcus aureus (GC 3053): 4 µg/mL (≈ 2.7 µM)
Staphylococcus sp.; strain GC 4541
  MIC Staphylococcus aureus (GC 4541): 1 µg/mL (≈ 0.674 µM)
Staphylococcus sp.; strain GC 4542
  MIC Staphylococcus aureus (GC 4542): 4 µg/mL (≈ 2.7 µM)
Staphylococcus sp.; strain GC 4543
  MIC Staphylococcus aureus-SMITH (GC 4543): 2 µg/mL (≈ 1.35 µM)
Staphylococcus sp.; strain GC 4544
  MIC Staphylococcus aureus (GC 4544): 4 µg/mL (≈ 2.7 µM)
Staphylococcus sp.; strain GC 4545
  MIC Staphylococcus aureus (GC 4545): 2 µg/mL (≈ 1.35 µM)
Staphylococcus sp.; strain GC 4546
  MIC Staphylococcus haemolyticus (GC 4546): 1 µg/mL (≈ 0.674 µM)
Staphylococcus sp.; strain GC 4547
  MIC Coagulase Negative Staphylococcus (GC 4547): 2 µg/mL (≈ 1.35 µM)
Staphylococcus sp.; strain GC 4548
  MIC Coagulase Negative Staphylococcus (GC 4548): 1 µg/mL (≈ 0.674 µM)
Staphylococcus sp.; strain GC 4549
  MIC Coagulase Negative Staphylococcus (GC 4549): 1 µg/mL (≈ 0.674 µM)
Staphylococcus sp.; strain GC 4551
  MIC Coagulase Negative Staphylococcus (GC 4551): 2 µg/mL (≈ 1.35 µM)
Streptococcus sp.; Streptococcus agalactiae (GC 4564)
  MIC Streptococcus agalactiae (GC 4564): <0.12 µg/mL
Streptococcus sp.; Streptococcus pneumoniae (ATCC 6301)
  MIC Streptococcus pneumoniae (ATCC 6301): 0.25 µg/mL (≈ 0.169 µM)
Streptococcus sp.; Streptococcus pneumoniae (GC 1894)
  MIC Streptococcus pneumoniae (GC 1894): <0.12 µg/mL
Streptococcus sp.; Streptococcus pneumoniae (GC 4565)
  MIC Streptococcus pneumoniae (GC 4565): 0.25 µg/mL (≈ 0.169 µM)
Streptococcus sp.; Streptococcus pyogenes (GC 4563)
  MIC Streptococcus pyogenes (GC 4563): 0.25 µg/mL (≈ 0.169 µM)
Streptococcus sp.; [1]
  MIC Streptococcus agalactiae (GC 4564): <0.12 µg/mL
  MIC Streptococcus pneumoniae (ATCC 6301): 0.25 µg/mL (≈ 0.169 µM)
  MIC Streptococcus pneumoniae (GC 1894): <0.12 µg/mL
  MIC Streptococcus pneumoniae (GC 4565): 0.25 µg/mL (≈ 0.169 µM)
  MIC Streptococcus pyogenes (GC 4563): 0.25 µg/mL (≈ 0.169 µM)
